Reference: US20250282746A1, “HALOGEN-SUBSTITUTED ISOINDOLINE COMPOUND AND USE THEREOF” (CHENGDU FENDI PHARMACEUTICAL CO., LTD., priority 2022, published 2025)
“Also recorded” adds a separate entry of the source.

What was measured:
MV-4-11-Luc xenograft = assay: Efficacy in acute myeloid leukemia MV-4-11-luc xenograft mouse model; type: in vivo; settings: for T/C (%) Day 3 / T/C (%) Day 7 / T/C (%) Day 10 / T/C (%) Day 14: 10 mg/kg orally twice daily, NSG mice
From the text: In an in vivo efficacy study, female immunocompromised NSG mice aged 6 to 8 weeks were used and the experimental procedures started after the animals were acclimatized in the experimental environment for 7 days. The animals were housed in SPF animal rooms in individually ventilated cages (IVCs) each containing 6 mice. Human acute myeloid leukemia MV-4-11 cells expressing luciferase (MV-4-11-luc) were grafted into mice by tail vein injection (5×10^6 cells/mouse). Seven days after the cell grafting, the mice were subjected to imaging on the IVIS Lumina III small animal imaging system for grouping and administration, and tumor-bearing mice were randomized to the vehicle control group or treatment groups (6 mice/group). The compound (10 mg/kg, twice daily) was administered to the animals in each treatment group by oral gavage. The body weight was measured daily, while mean luminescence was measured after the start of treatment with the compounds or vehicle.
Indicators: The indicators were to investigate whether the tumor growth was inhibited or delayed or the tumor was cured. The tumor size was measured twice weekly using the IVIS Lumina III small animal imaging system. The tumor signals were determined by exposure photons per second. The anti-tumor efficacy of the compounds was evaluated by the tumor proliferation rate T/C (%). T/C %=TRTV/CRTV×100% (TRTV: the RTV of the treatment group; CRTV: the RTV of negative control group; RTV=Vt/V0, where V0 is the tumor signal measured at the time of grouping and administration (i.e., day 0), and Vt is the tumor signal at every measurement). According to the guidelines of the Center for Drug Evaluation, NMPA, a T/C (%) of >40% denotes the absence of efficacy, while a T/C of <40% with P<0.05 denotes the presence of efficacy.

MOLM-13 cells [1] = assay: Antiproliferative effect alone and in combination with azacitidine against MOLM-13 cells; type: cell-based; settings: MOLM-13 cells, 72 h
Procedure: (§1) MOLM-13 cells in the logarithmic growth phase were diluted in a medium RPMI+[…], and NCI-H929 cells were diluted in a medium RPMI+10% FBS. The cells were plated at 4,000 cells/well in 96-well whole black plates (WHB) with 50 μL/well. After plating, the plates were incubated in an incubator at 5% CO2 and 37° C. for 24 h before the compounds were added. The compounds were prepared into a 10 mM stock solution in DMSO and diluted in a culture medium to the desired concentrations (a final DMSO concentration of 0.2%). 50 μL of the compound dilutions at final concentrations of 10,000, 3,333.33, 1,111.11, 370.37, 123.46, 41.15, 13.72, 4.57, 1.52, and 0 nM were added to the 96-well plates containing the cells, that is, each compound was serially diluted to 10 concentrations in duplicate. The plates were incubated at 5% CO2 and 37° C. for 72 h. When pharmaceutical partners were used, the concentrations of azacitidine and dexamethasone were kept at 200 nM and 500 nM respectively, and the compounds were serially three-fold diluted from 10,000 nM. After the incubation was complete, the plates were equilibrated at room temperature for 30 min. CellTiter-Glo® Reagent (Promega G7573) was added at 100 μL/well. The plates were shaken for 12 min on a microplate shaker. The luminescence value was measured at room temperature by the GloMax navigator (Promega GM2010). The IC50 values were calculated using the GraphPad Prism 7 software with the 0 nM control group as 0% inhibition.

NCI-H929 cells [2] = assay: Antiproliferative effect alone and in combination with dexamethasone against NCI-H929 cells; type: cell-based; settings: 72 h, read-out: IC50
Procedure: as §1

hERG potassium channel = molecular target: T1, hERG potassium channel (Homo sapiens, UniProt Q12809); assay: hERG inhibition assay (automated patch clamp, HEK293); type: cell-based; settings: 3 μM, HEK293 cells, QPatch
T1 construct: expressed in transfected cells; host or cells: HEK293 cells
From the text: The rapidly activating potassium channel encoded by human ether-a-go-go-related gene (hERG) is an important ion channel involved in the formation of cardiac action potential phase 3 repolarization. Blocking of the hERG channel by drugs can lead to the prolongation of cardiac repolarization and thus a prolonged QT interval in the electrocardiogram, known as long QT syndrome. Drug-induced delayed ventricular repolarization may in some cases trigger fatal arrhythmia-torsade de pointes-type ventricular tachycardia.
This assay was used to measure the effect of compounds on the hERG potassium channel clones expressed in human embryonic kidney (HEK293) cells. The assay procedures are as follows: the cells were transferred into a HEPES-buffered saline in glass-lined 96-well plates and exposed to an appropriate amount of test compound or control solution at various concentrations for 3 min. The test compounds were diluted in 0.3% DMSO.

MOLM-13 cells [3] = assay: Antiproliferative activity against various tumor cells: MOLM-13; type: cell-based; settings: Homo sapiens; MOLM-13 cells, 72 h; read-out: Antiproliferative activity IC50 MOLM-13
Procedure: (§2) U937, NCI-H929, AML-2, and MOLM-13 cells in the logarithmic growth phase were diluted in media RPMI+10% FBS, RPMI+10% FBS, MEMα+20% FBS, RPMI+20% FBS, respectively, and plated at 4,000 cells/well in 96-well whole black plates (WHB) with 50 μL/well. After plating, the plates were incubated in an incubator at 5% CO2 and 37° C. for 24 h before the compounds were added. The compounds were prepared into a 10 mM stock solution in DMSO and diluted in a culture medium to the desired concentrations (a final DMSO concentration of 0.2%). […] The plates were incubated at 5% CO2 and 37° C. for 72 h. After the incubation was complete, the plates were equilibrated at room temperature for 30 min. CellTiter-Glo® Reagent (Promega G7573) was added at 100 μL/well. The plates were shaken for 12 min on a microplate shaker. The luminescence value was measured at room temperature by the GloMax navigator (Promega GM2010).

MV-4-11 cells [4] = assay: Apoptotic effect on AML cells (annexin/PI flow cytometry); type: cell-based, human; settings: 1 μM and 100 nM
Procedure: MV-4-11 cells in the logarithmic growth phase were diluted in a growth medium and plated at 600,000 cells/well in 6-well plates with 2 mL/well and the compounds were added. The cells were collected, washed twice with pre-cooled PBS, and resuspended in 100 μL of 1× annexin-binding buffer. 5 μL of FITC and 1 μL of 100 µg/mL PI were added. The cells were incubated at room temperature in the dark for 15 min and transferred on ice, and 400 μL of 1× annexin-binding buffer was added. The mixture was gently mixed and subjected to flow cytometry.

MV-4-11 cells [5] = assay: Antiproliferative activity against MV-4-11 cells (CellTiter-Glo, 72 h); type: cell-based; settings: Homo sapiens, MV4-11; MV-4-11 cells, 72 h; read-out: Antiproliferative activity IC50
How it was run: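 MV-4-11 cells in RPMI + 10% FBS plated at 5,000 cells/well and pre-incubated 24 h at 37 °C, 5% CO2. Compounds were then added (final DMSO 0.2%) and cells incubated 72 h. Viability was read by CellTiter-Glo luminescence after 30 min equilibration at room temperature.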

U937 cells = assay: Antiproliferative activity against various tumor cells: U937; type: cell-based; settings: Homo sapiens, U-937; U937 cells, 72 h; read-out: Antiproliferative activity IC50 U937
Procedure: as §2

GSPT1 protein = molecular target: T2, GSPT1 protein (Homo sapiens, UniProt P15170); assay: Degradation of GSPT1 protein in NB-4 cells (Western blot); type: cell-based; settings: NB-4 cells, compound 1 μM, 6 h; read-out: GSPT1 degradation
T2 construct: The whole cell lysate was prepared using a RIPA lysis buffer; endogenous in cells; host or cells: NB-4 cells
How it was run: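 NB-4 cells treated with compounds at 1 μM for 6 h at 37 °C, 5% CO2, with DMSO control. RIPA whole-cell lysates, BCA-normalized, were run on 4-20% SDS-PAGE and immunoblotted for GSPT1 protein.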

NCI-H929 cells [6] = assay: Antiproliferative activity against various tumor cells: NCI-H929; type: cell-based; settings: Homo sapiens; NCI-H929 cells, 72 h; read-out: Antiproliferative activity IC50 NCI-H929
Procedure: as §2

AML-2 cells = assay: Antiproliferative activity against various tumor cells: AML-2; type: cell-based; settings: AML-2 cells, 72 h; read-out: Antiproliferative activity IC50 AML-2
Procedure: as §2

T2 sequence (P15170 whole entry): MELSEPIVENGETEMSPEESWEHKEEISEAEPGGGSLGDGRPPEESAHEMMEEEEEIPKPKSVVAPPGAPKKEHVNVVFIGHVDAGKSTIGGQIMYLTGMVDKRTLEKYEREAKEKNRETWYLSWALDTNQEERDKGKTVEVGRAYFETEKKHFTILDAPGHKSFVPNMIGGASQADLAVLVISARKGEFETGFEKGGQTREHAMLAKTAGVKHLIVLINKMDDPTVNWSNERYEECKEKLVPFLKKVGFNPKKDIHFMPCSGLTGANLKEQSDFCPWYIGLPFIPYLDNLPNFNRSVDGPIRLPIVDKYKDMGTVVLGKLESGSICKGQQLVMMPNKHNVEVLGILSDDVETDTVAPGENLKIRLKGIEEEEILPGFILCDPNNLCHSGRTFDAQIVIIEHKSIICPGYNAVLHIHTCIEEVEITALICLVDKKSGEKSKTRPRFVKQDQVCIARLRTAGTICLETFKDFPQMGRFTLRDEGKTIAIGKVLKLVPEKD
T1 sequence (Q12809 whole entry): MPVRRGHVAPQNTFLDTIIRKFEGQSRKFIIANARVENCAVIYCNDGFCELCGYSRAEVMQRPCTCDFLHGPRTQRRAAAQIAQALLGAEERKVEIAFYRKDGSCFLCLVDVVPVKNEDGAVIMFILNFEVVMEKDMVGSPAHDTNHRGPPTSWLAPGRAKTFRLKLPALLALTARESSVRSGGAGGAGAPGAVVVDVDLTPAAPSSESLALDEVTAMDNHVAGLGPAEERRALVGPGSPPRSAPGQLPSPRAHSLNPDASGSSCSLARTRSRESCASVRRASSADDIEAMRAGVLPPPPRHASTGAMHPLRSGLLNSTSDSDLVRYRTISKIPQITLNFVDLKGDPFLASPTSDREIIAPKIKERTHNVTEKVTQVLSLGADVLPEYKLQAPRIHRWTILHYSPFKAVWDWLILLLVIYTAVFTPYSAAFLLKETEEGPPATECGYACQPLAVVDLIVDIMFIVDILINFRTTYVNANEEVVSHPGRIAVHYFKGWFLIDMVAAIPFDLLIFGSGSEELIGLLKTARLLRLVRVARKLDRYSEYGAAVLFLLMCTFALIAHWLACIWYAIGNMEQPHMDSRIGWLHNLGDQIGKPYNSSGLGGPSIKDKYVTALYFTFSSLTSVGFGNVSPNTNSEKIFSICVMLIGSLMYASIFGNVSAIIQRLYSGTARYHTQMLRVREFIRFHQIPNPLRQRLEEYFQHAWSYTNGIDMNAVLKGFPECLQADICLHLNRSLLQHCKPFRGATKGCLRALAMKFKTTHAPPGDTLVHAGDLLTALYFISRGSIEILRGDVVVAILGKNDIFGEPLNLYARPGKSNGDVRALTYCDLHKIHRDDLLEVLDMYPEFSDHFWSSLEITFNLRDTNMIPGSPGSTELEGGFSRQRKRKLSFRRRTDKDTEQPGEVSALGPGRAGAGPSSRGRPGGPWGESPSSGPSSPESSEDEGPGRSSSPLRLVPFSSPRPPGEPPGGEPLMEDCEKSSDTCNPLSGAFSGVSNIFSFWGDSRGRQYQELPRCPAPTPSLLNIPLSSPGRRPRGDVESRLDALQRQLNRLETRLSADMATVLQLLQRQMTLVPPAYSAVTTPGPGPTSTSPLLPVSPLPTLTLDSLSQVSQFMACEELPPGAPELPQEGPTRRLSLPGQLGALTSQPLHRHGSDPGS

Structure (SMILES)	T/C (%) Day 3 (MV-4-11-Luc xenograft) [%]	T/C (%) Day 7 (MV-4-11-Luc xenograft) [%]	T/C (%) Day 10 (MV-4-11-Luc xenograft) [%]	T/C (%) Day 14 (MV-4-11-Luc xenograft) [%]	tumor inhibitory effect in mouse xenograft model (MV-4-11-Luc xenograft; oral administration, 10 mg/kg twice daily, within 14 days, 10 mg/kg)	IC50 (MOLM-13 cells [1]; compound alone) [nM]	IC50 (MOLM-13 cells [1]; in combination with 200 nM azacitidine) [nM]	IC50 (NCI-H929 cells [2]; compound alone) [nM]	IC50 (NCI-H929 cells [2]; in combination with 500 nM dexamethasone) [nM]	hERG inhibition rate (hERG potassium channel) [%]	IC50 (MOLM-13 cells [3]) [nM]	apoptotic effect on MV-4-11 cells (MV-4-11 cells [4]; treated for 7 h, 10 µM)	apoptotic effect on MV-4-11 cells (MV-4-11 cells [4]; treated for 16 h)	IC50 (MV-4-11 cells [5]) [nM]	IC50 (U937 cells) [nM]	inhibition at 1 µM (GSPT1 protein) [%]	IC50 (NCI-H929 cells [6]) [nM]	IC50 (AML-2 cells) [nM]
O=C1CCC(N2Cc3cc(CNC(=O)C(F)(F)c4ccc(Cl)cc4)ccc3C2=O)C(=O)N1 (centres unmarked) [CC-90009, reference compound]	100.80	133.08	127.05	132.90	no tumor inhibitory effects; also recorded: no tumor inhibitory activity	1420	43.9	3200	77.3	66	–	–	–	–	–	–	–	–
O=C1CCC(N2Cc3c(ccc(CNC(=O)c4cc5cc(F)ccc5o4)c3F)C2=O)C(=O)N1 (centres unmarked) [FDAB-46]	–	–	–	–	–	–	–	–	–	–	100 to 1000	no apoptotic effect	apoptosis was induced	1 to 10	10 to 100	> 80	1 to 10	100 to 1000
Cc1ccc(C(=O)NCc2ccc3c(c2F)CN(C2CCC(=O)NC2=O)C3=O)cc1 (centres unmarked) [FDAB-65]	4.58	1.40	1.01	0.78	–	–	–	–	–	11	100 to 1000	no apoptotic effect	apoptosis was induced	10 to 100	10 to 100	> 80	1 to 10	100 to 1000
Cc1ccc(C(=O)NCc2ccc3c(c2F)CN(C2CCC(=O)NC2=O)C3=O)cc1F (centres unmarked) [FDAB-120]	6.69	1.58	2.00	2.12	–	–	–	–	–	13	–	–	–	10 to 100	–	> 80	–	–
